The source made the active and inactive calls. The rule behind the calls is not given here.
What was measured:
BV-2 [1] = assay: Antiinflammatory activity in mouse BV-2 cells assessed as reduction in LPS-induced nitric oxide production incubated for 24 hrs by 2, 3-diaminonaphthalene based assay; type: functional, cell-based
BV-2 [2] = assay: Cytotoxicity against mouse BV-2 cells assessed as reduction in cell viability incubated for 24 hrs by crystal violet dye based assay; settings: BV-2, 24 h
BV-2 [3] = assay: Antiinflammatory activity in mouse BV-2 cells assessed as reduction in LPS-induced IL-1beta mRNA expression at 100 uM incubated for 6 hrs by qRT-PCR analysis; type: functional, cell-based
BV-2 [4] = assay: Cytotoxicity against mouse BV-2 cells assessed as reduction in cell viability upto 200 uM incubated for 24 hrs by crystal violet dye based assay; settings: bv-2, 24 h
BV-2 [5] = assay: Antiinflammatory activity in mouse BV-2 cells assessed as reduction in LPS-induced iNOS mRNA expression at 100 uM incubated for 6 hrs by qRT-PCR analysis; type: functional, cell-based
BV-2 [6] = assay: Antiinflammatory activity in mouse BV-2 cells assessed as reduction in LPS-induced IL-1beta mRNA expression incubated for 6 hrs by qRT-PCR analysis; type: functional, cell-based; settings: dose 20-100 µM
BV-2 [7] = assay: Inhibition of LPS-induced MAPK activation in mouse BV-2 cells assessed as reduction in p38 phosphorylation at 100 uM incubated for 1 hr by Western blot analysis; type: cell-based
BV-2 [8] = assay: Inhibition of LPS-induced NF-kappaB activation in mouse BV-2 cells expressing luciferase gene at 5 to 100 uM incubated for 24 hrs by steady-glo luciferase assay; type: cell-based; settings: dose 5-100 µM
BV-2 [9] = assay: Inhibition of LPS-induced NF-kappaB activation in mouse BV-2 cells assessed as reduction in IKKalpha/beta phosphorylation at 100 uM incubated for 1 hr by Western blot analysis; type: cell-based
BV-2 [10] = assay: Inhibition of LPS-induced NF-kappaB activation in mouse BV-2 cells assessed as reduction in IRAK1 phosphorylation at 100 uM incubated for 1 hr by Western blot analysis; type: cell-based
BV-2 [11] = assay: Inhibition of LPS-induced MAPK activation in mouse BV-2 cells assessed as reduction in ERK phosphorylation at 100 uM incubated for 1 hr by Western blot analysis; type: cell-based
BV-2 [12] = assay: Antiinflammatory activity in mouse BV-2 cells assessed as reduction in LPS-induced iNOS mRNA expression incubated for 6 hrs by qRT-PCR analysis; type: functional, cell-based; settings: dose 20-100 µM
BV-2 [13] = assay: Inhibition of LPS-induced MAPK activation in mouse BV-2 cells assessed as reduction in JNK phosphorylation at 100 uM incubated for 1 hr by Western blot analysis; type: cell-based
BV-2 [14] = assay: Inhibition of LPS-induced NF-kappaB activation in mouse BV-2 cells assessed as reduction in NF-kappaB p65 phosphorylation at 100 uM incubated for 1 hr by Western blot analysis; type: cell-based
BV-2 [15] = assay: Antiinflammatory activity in mouse BV-2 cells assessed as reduction in LPS-induced nitric oxide production incubated for 24 hrs in presence of DHA by 2, 3-diaminonaphthalene based assay; type: functional, cell-based
BV-2 [16] = assay: Cytotoxicity against mouse BV-2 cells assessed as reduction in cell viability incubated for 24 hrs in presence of DHA by crystal violet dye based assay; settings: bv-2, 24 h
[17] = Mus musculus, BV-2, 24 h, read-out: IC50

**Q.** Which IC50 (BV-2 [1]; [17]) does the source give for C[C@H]1[C@@H](O)O[C@@H]2O[C@@]3(C)CC[C@H]4[C@H](C)CC[C@@H]1[C@@]24OO3 [ARTENIMOL] here?
**A.** 7.4 µM

**Q.** What about the IC50 (BV-2 [2]) of the same compound?
**A.** 120 µM

**Q.** Which results are given for C=C(C)[C@@H]1CCC(C)=C[C@H]1c1c(O)cc(CCCCC)cc1OCCO[C@H]1O[C@@H]2O[C@]3(C)CC[C@H]4[C@H](C)CC[C@@H]([C@H]1C)[C@@]24OO3?
**A.** inhibition (BV-2 [3]): inactive; Activity (BV-2 [4]): Non-Toxic; inhibition (BV-2 [1]): Dose-Dependent Effect; IC50 (BV-2 [1]; [17]): 55 µM; inhibition (BV-2 [5]): inactive

**Q.** What does the source list for C=C(C)[C@@H]1CCC(C)=C[C@H]1c1c(O)cc(CCCCC)cc1OCCCO[C@H]1O[C@@H]2O[C@]3(C)CC[C@H]4[C@H](C)CC[C@@H]([C@H]1C)[C@@]24OO3?
**A.** inhibition (BV-2 [6]): Dose-Dependent Effect; inhibition (BV-2 [7]): inactive; inhibition (BV-2 [8]): Active; inhibition (BV-2 [9]): Active; inhibition (BV-2 [10]): Active; Activity (BV-2 [4]): Non-Toxic; inhibition (BV-2 [11]): inactive; inhibition (BV-2 [1]): Dose-Dependent Effect; IC50 (BV-2 [1]; [17]): 11.7 µM; inhibition (BV-2 [12]): Dose-Dependent Effect; inhibition (BV-2 [13]): inactive; inhibition (BV-2 [14]): Active

**Q.** Which IC50 (BV-2 [1]; [17]) does the source give for C=C(C)[C@@H]1CCC(C)=C[C@H]1c1c(O)cc(CCCCC)cc1O [CANNABIDIOL] here?
**A.** 10.3 µM

**Q.** And the IC50 (BV-2 [2])?
**A.** 8 µM

**Q.** What about the inhibition (BV-2 [15]) of the same compound?
**A.** Active

**Q.** What about the Activity (BV-2 [16]) of the same compound?
**A.** Toxic

**Q.** Which inhibition (BV-2 [3]) does the source give for C=C(C)[C@@H]1CCC(C)=C[C@H]1c1c(O)cc(CCCCC)cc1OCCCCO[C@H]1O[C@@H]2O[C@]3(C)CC[C@H]4[C@H](C)CC[C@@H]([C@H]1C)[C@@]24OO3 here?
**A.** inactive

**Q.** And the Activity (BV-2 [4])?
**A.** Non-Toxic

**Q.** What about the IC50 (BV-2 [1]; bv-2) of the same compound?
**A.** Not Active

**Q.** And the inhibition (BV-2 [5])?
**A.** inactive

Source: ChEMBL document CHEMBL4819080, “Cannabidiol-dihydroartemisinin conjugates for ameliorating neuroinflammation with reduced cytotoxicity” (Bioorg Med Chem, 2021)
